Results published in patent publication US20240286998A1, “F[…], ANALOGUES THEREOF, AND METHODS USING SAME” (Saint Joseph's University, priority 2021, published 2024).
Like-named read-outs stand apart in the source and are kept apart here.

What was measured:
Serotonin 5-HT2A (human) = Serotonin 5-HT2A (human) (Homo sapiens (Human), UniProt P28223); assay: 5-HT2A receptor binding, [3H]-ketanserin competition in membrane fractions; conditions: 1 nM [3H]-ketanserin, Cheng-Prusoff, N=1-3
5-HT2A = 5-HT2A (Homo sapiens (Human), UniProt P28223); assay: 5-HT2A Gq-mediated calcium flux functional assay; type: cell-based
5-HT2B = 5-HT2B (Homo sapiens (Human), UniProt P41595); assay: 5-HT2B Gq-mediated calcium flux functional assay; type: cell-based
5-HT2C = 5-HT2C (Homo sapiens (Human), UniProt P28335); assay: 5-HT2C Gq-mediated calcium flux functional assay; type: cell-based
5-HT1A = 5-HT1A (Homo sapiens (Human), UniProt P08908); assay: 5-HT1A Gi/o-mediated cAMP inhibition, GloSensor assay; type: cell-based
C57BL/6J mice = assay: Head-Twitch Response (HTR) in mice; type: in vivo; conditions: for ED50: Mus musculus, ip, 0.5 h; for HTR counts over baseline / induction of HTR: compared to vehicle
Method: Male C57BL/6J mice (6-8 weeks old) were obtained from Jackson Laboratories (Bar Harbor, ME) and housed in a vivarium at the University of California San Diego, an AAALAC-approved animal facility that meets all federal and state requirements for care and treatment of laboratory animals. All animal experiments were carried out in accordance with NIH guidelines and were approved by the UCSD Institutional Animal Care and Use Committee. Mice were housed up to four per cage in a climate-controlled room on a reverse-light cycle (lights on at 1900 h, off at 0700 h). Animals were provided with ad libitum access to food and water, with the exception of during behavioral testing.
Testing was conducted between 1000 and 1800 h. Head movements were recorded using a head-mounted magnet and a magnetometer coil as described in Halberstadt et al. (Psychopharmacology, 2013, 227(4):727-739). For the head mounted magnet, mice were anesthetized, an incision was made in the scalp, and a neodymium magnet was attached to the dorsal surface of the cranium using dental cement. Following a 2-week recovery period, behavioral experiments were conducted in a well-lit room. At least 7 days occurred between sessions to avoid any carryover effects. Test substances (i.e., dimethyltryptamine (DMT), diethyltryptamine (DET), psilocybin, 6-fluoro-diethyltryptamine (6-F-DET), compounds 3-4, 6, 9, 12-13, 22, 33, 41, 69, 88, 166, and 178) were administered intraperitoneally (IP) at a volume of 5 mL/kg. Mice were treated with vehicle (saline) or 6 doses of the test compound and then placed in a glass cylinder surrounded by a magnetometer coil and tested for 30 min. Coil voltage was filtered (1 kHz lowpass), digitized (20 kHz sampling rate) and saved to disk using a Powerlab/8SP with LabChart v 7.3.2 (ADInstruments, Colorado Springs, CO).
The entire 30 min recordings were examined for head twitches. Established procedures based on artificial intelligence were used to identify head twitches in the recordings (Scientific Reports, 2020, 10(1):1-12). HTR counts were analyzed using one-way analyses of variance (ANOVA), followed by post hoc pairwise comparisons between individual groups and vehicle using Dunnett's multiple comparisons test. […] Median effective doses (ED50 values) and 95% confidence intervals (95% CI) were calculated using nonlinear regression (Prism 9.0.2, GraphPad Software, San Diego, CA) (Table 4 and FIGS. 1-3).

[1] = Metabolic stability in cryopreserved human hepatocytes; type: in vitro ADME; conditions: cryopreserved hepatocytes, human hepatocytes, 1 μM, 37° C.
Method: (§1) The metabolic stability of a test compounds were assessed by monitoring disappearance of each compound in the presence of cryopreserved hepatocytes for up to 1 hour at 37° C. Following protein precipitation and centrifugation, the samples were analyzed by UPLC-MS-MS. Test Compound stock solutions (10 mM) were diluted 1 in 100 (2 μL 10 mM DMSO stock+198 μL 50:50 acetonitrile:water) to provide a 100 μM working solution. Following addition of test compounds to buffer, samples were pre-incubated at 37° C. for 5 minutes prior to initiating the incubation by the addition of test compounds to hepatocytes (these were held at 37° C. during pre-incubation period). Aliquots were sampled at 0, 5, 10, 20, 40 and 60 min and added to ice cold acetonitrile to terminate the reaction and precipitate proteins. All samples were mixed, centrifuged, and the supernatants were analyzed by UPLC-MS-MS using a Phenomenex Luna Omega […], C18 100 Å, 50×2.1 mm column. The final incubation conditions were as follows: hepatocytes 0.5×10^6 viable cells/mL, test compound 1 μM (n=1), acetonitrile concentration<0.01% (v/v) and DMSO concentration<0.01% (v/v). The intrinsic clearance (Clint) and half-life (T1/2) values are determined from the slope of the parent depletion curve. Positive control compounds with known metabolic clearance were included (diltiazem and naloxone).

human hepatocytes = assay: as above; type: in vitro ADME; conditions: human hepatocytes, 1 μM, 37° C.
Method: as §1

[2] = cAMP inhibition, 0.2 μM isoproterenol, IA = Inactive
[3] = read-out: HTR ED50 μmol/kg (95% CI)
[4] = read-out: HTR ED50 mg/kg (95% CI)

Chain of 5-HT2B (P41595 whole entry): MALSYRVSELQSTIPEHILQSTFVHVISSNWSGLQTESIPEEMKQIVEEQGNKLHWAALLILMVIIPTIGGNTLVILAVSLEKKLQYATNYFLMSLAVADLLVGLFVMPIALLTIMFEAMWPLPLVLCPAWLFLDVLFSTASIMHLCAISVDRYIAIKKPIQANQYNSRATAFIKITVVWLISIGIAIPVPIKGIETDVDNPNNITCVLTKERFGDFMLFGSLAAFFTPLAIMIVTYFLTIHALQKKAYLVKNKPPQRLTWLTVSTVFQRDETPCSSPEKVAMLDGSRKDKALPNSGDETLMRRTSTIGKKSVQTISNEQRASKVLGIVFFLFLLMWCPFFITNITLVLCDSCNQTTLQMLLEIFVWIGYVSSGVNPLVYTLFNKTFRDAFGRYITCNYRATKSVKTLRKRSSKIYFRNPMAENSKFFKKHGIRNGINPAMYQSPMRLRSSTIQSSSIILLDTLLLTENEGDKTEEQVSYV
Chain of 5-HT2C (P28335 whole entry, looked up): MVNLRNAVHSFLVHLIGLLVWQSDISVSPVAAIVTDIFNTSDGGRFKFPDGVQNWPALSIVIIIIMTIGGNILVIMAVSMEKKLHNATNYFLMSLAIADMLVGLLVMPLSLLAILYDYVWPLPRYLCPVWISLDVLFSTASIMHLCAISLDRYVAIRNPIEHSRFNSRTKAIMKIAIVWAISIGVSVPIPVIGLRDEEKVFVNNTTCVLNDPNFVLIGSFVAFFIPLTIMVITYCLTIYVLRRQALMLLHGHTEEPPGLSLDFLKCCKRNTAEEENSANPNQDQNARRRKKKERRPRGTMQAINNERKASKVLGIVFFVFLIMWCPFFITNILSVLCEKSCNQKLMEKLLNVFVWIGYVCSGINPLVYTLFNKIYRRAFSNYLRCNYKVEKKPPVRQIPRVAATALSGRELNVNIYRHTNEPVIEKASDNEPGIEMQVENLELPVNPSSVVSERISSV

Row | Compound | 5-HT2A pKi ± SEM (Serotonin 5-HT2A (human)) | EC50 (5-HT2A) | 5-HT2A-Ca2+ FLUX Emax (% 5-HT) (5-HT2A; IA = Inactive, N=1-3) | EC50 (5-HT2B) | 5-HT2B-Ca2+ FLUX Emax (% 5-HT) (5-HT2B; IA = Inactive, N=1-3) | EC50 (5-HT2C) | 5-HT2C-Ca2+ FLUX Emax (% 5-HT) (5-HT2C; IA = Inactive, N=1-3) | EC50 (5-HT1A) | 5-HT1A-cAMP Emax (% 5-HT) (5-HT1A; [2]) | ED50 (C57BL/6J mice; [3]) | ED50 (C57BL/6J mice; [4]) | also measured
1 | CCCN(CCc1c[nH]c2ccc(F)cc12)C1CCC1 [compound 33, N-(2-(5-fluoro-1H-indol-3-yl)ethyl)-N-propylcyclobutanamine] | 6.25 ± 0.003 | 0.49 nM | 107.0 ± 1.9 % 5-HT | 0.589 nM | 115.6 ± 2.2 % 5-HT | 19.1 nM | 105.4 ± 1.8 % 5-HT | 14.5 nM | 100.7 ± 1.3 % 5-HT | 2.55 µmol/kg | 0.79 mg/kg | 5-HT2A-Ca2+ FLUX pEC50 (5-HT2A; IA = Inactive, N=1-3): 9.31 ± 0.06; 5-HT2B-Ca2+ FLUX pEC50 (5-HT2B; IA = Inactive, N=1-3): 9.23 ± 0.07; 5-HT2C-Ca2+ FLUX pEC50 (5-HT2C; IA = Inactive, N=1-3): 7.72 ± 0.05; 5-HT1A-cAMP pEC50 (5-HT1A; [2]): 7.84 ± 0.04
2 | CCCN(CCc1c[nH]c2ccc(F)cc12)C(C)CC (stereo not drawn) [compound 22, N-(2-(5-fluoro-1H-indol-3-yl)ethyl)-N-propylbutan-2-amine] | 5.97 ± 0.02 | 0.891 nM | 105.4 ± 1.6 % 5-HT | 0.813 nM | 98.9 ± 1.6 % 5-HT | 50.1 nM | 97.5 ± 2.6 % 5-HT | 324 nM | 102.90 ± 1.9 % 5-HT | 12.4 µmol/kg | 3.88 mg/kg | –
3 | CCCN(CC)CCc1c[nH]c2c(F)cc(C)cc12 [compound 166, N-ethyl-N-(2-(7-fluoro-5-methyl-1H-indol-3-yl)ethyl)propan-1-amine] | 5.96 ± 0.25 | 18.2 nM | 98.1 ± 0.7 % 5-HT | 33.1 nM | 95.9 ± 0.7 % 5-HT | 200 nM | 94.6 ± 1.7 % 5-HT | – | – | 6.56 µmol/kg | 1.96 mg/kg | –
4 | CCN(C)CCc1c[nH]c2c(F)cc(OC)cc12 [compound 88, N-ethyl-2-(7-fluoro-5-methoxy-1H-indol-3-yl)-N-methylethan-1-amine] | 6.71 ± 0.31 | 1.95 nM | 90.6 ± 0.8 % 5-HT | 5.62 nM | 37.5 ± 0.7 % 5-HT | 20.4 nM | 86.8 ± 1.4 % 5-HT | – | – | 1.95 µmol/kg | 0.56 mg/kg | –
5 | C=CC(C)N(C)CCc1c[nH]c2ccc(F)cc12 (stereo not drawn) [compound 178, N-(2-(5-fluoro-1H-indol-3-yl)ethyl)-N-methylbut-3-en-2-amine] | 6.25 | 5.37 nM | 84.7 ± 1.2 % 5-HT | 5.5 nM | 27.7 ± 0.5 % 5-HT | 15.8 nM | 87.4 ± 1.5 % 5-HT | – | – | 3.53 µmol/kg | 0.87 mg/kg | –
6 | C=CCN1CC[C@]23c4c5ccc(O)c4O[C@H]2C(=O)CC[C@@]3(O)[C@H]1C5 [naloxone, reference compound] | – | – | – | – | – | – | – | – | – | – | – | half-life at 1 μM [1]: 10 min; hepatocyte CLint at 1 μM ([1]; read-out: Clint (μL/min/10^6 cells)): 138 µL/min/1e6 cells
7 | CCCN(CC)CCc1c[nH]c2c(F)cc(OC)cc12 [compound 41, N-ethyl-N-(2-(7-fluoro-5-methoxy-1H-indol-3-yl)ethyl)propan-1-amine] | 6.15 ± 0.34 | – | – | – | – | – | – | – | – | 3.56 µmol/kg | 1.12 mg/kg | –
8 | COc1ccc([C@@H]2Sc3ccccc3N(CCN(C)C)C(=O)[C@@H]2OC(C)=O)cc1 [diltiazem, reference compound] | – | – | – | – | – | – | – | – | – | – | – | Clint (μL/min/10^6 cells) (human hepatocytes): 32 μL/min/10^6 cells; T1/2 (human hepatocytes): 44 min
9 | CCN(CC)CCc1c[nH]c2cccc(F)c12 [Example 8, N,N-diethyl-2-(4-fluoro-1H-indol-3-yl)ethan-1-amine] | 6.09 | – | – | – | – | – | – | – | – | – | – | HTR counts over baseline / induction of HTR (C57BL/6J mice): inactive
10 | CCCN(CC)CCc1c[nH]c2cc(F)c(F)cc12 [Example 9, N-(2-(5,6-difluoro-1H-indol-3-yl)ethyl)-N-ethylpropan-1-amine] | 6.15 ± 0.21 | 1.02 nM | 105.7 ± 1.9 % 5-HT | 1.7 nM | 96.6 ± 2.0 % 5-HT | 19.1 nM | 100.7 ± 3.0 % 5-HT | 229 nM | 89.1 ± 2.9 % 5-HT | 3 µmol/kg | 0.91 mg/kg | HTR counts over baseline / induction of HTR (C57BL/6J mice): significant increase; melting point: 83 to 86 °C
11 | CCCN(C)CCc1c[nH]c2ccc(F)cc12 [Example 13, N-(2-(5-fluoro-1H-indol-3-yl)ethyl)-N-methylpropan-1-amine] | 6.72 ± 0.12 | 1.58 nM | 103.0 ± 1.1 % 5-HT | 2.63 nM | 77.0 ± 1.2 % 5-HT | 1.51 nM | 115.0 ± 4.0 % 5-HT | 245 nM | 85.8 ± 2.5 % 5-HT | 4.81 µmol/kg | 1.13 mg/kg | melting point: 80 to 82 °C
